Where two headings read alike, the source gives them in different places.
Tests used:
AChE = target: T1, AChE (Electrophorus electricus, UniProt O42275); experiment: biochemical; assay type: biochemical; settings: for IC50: electric eel AChE, Ellman's method, SEM of three experiments; for Selectivity for AChE: ratio of IC50 values, BuChE over AChE; for fold stronger AChE inhibition than the standard neostigmine: relative to neostigmine
T1 construct: electric eel, and horse serum were used as source of AChE and BuChE, respectively; from tissue; host or cells: electric eel
Protocol: (§1) The target compounds, coumarinyl thiazoles 6(a–o) and coumarinyl oxadiazoles 11(a–h), were screened for their inhibitory activity against AChE and BuChE by Ellman's method.
(§2) For the determination of cholinesterase inhibition, electric eel, and horse serum were used as source of AChE and BuChE, respectively. […] The compounds with 1 Mm concentration were prepared in DMSO. Assay was carried out in 96 well-plate in triplicates. The reaction mixture comprised of 20 μL of buffer (tris HCl 50 mM, 0.02 M MgCl2.6H2O, 0.1 mM NaCl) at pH 8, 10 μL of the test compound, 10 μL enzyme acetylcholine or butyrylcholinesterase of 0.03 U/mL (500 U of AChE and 700 U/mg of BuChE). The contents were incubated for 10 min at 25°C followed by the addition of 1 mM of 10 μL of substrate […] for AChE and butyrylthiocholine iodide for BuChE and incubated again at 25°C for 15 min. A 50 μL of 3 mM DTNB as a coloring agent was added and incubated at 25°C for further 10 min. […] The enzyme dilutions were made by using buffer of pH 8 (tris base 50 mM and having 0.1% BSA).

BuChE = target: T2, BuChE (Equus caballus, UniProt P81908); experiment: biochemical; assay type: biochemical; settings: for Selectivity for BuChE: ratio of IC50 values, AChE over BuChE
T2 construct: electric eel, and horse serum were used as source of AChE and BuChE, respectively; from tissue; host or cells: horse serum
Protocol: as §1, §2

[1] = horse serum BuChE, Ellman's method, SEM of three experiments, read-out: BuChE IC50 (μM) ± SEM

T1 sequence (O42275 24-633): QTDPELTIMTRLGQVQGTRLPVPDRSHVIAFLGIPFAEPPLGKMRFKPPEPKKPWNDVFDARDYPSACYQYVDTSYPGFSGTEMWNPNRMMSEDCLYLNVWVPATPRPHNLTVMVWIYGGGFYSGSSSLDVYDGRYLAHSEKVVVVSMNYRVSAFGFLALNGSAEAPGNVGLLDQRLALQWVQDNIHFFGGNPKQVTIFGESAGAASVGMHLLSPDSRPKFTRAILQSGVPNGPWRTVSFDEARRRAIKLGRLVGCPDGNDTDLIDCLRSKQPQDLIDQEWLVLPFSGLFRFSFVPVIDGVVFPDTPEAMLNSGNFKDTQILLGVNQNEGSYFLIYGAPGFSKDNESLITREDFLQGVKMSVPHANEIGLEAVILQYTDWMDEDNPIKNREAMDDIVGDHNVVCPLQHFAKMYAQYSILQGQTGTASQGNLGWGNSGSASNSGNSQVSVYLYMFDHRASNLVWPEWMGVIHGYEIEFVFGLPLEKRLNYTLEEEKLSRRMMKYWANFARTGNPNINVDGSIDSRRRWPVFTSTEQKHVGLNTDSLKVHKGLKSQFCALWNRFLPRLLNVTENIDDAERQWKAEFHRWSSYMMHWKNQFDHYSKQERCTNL
T2 sequence (P81908 whole entry): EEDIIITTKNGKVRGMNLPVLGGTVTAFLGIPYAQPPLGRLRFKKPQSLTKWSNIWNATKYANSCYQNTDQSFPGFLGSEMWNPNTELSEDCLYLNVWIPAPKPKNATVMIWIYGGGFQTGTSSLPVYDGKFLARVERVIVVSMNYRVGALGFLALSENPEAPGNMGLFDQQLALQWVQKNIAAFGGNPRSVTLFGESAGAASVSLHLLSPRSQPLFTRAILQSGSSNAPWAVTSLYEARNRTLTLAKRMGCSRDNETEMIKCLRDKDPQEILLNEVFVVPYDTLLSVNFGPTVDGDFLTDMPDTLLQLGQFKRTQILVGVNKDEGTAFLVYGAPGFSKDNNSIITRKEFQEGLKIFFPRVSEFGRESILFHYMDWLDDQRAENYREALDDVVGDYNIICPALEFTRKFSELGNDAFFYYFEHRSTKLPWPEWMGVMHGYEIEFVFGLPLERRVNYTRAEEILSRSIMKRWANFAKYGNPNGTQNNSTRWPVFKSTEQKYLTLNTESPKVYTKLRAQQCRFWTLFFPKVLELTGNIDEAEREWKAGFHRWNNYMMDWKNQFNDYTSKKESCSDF

C/C(=N\Nc1nc(-c2cc3ccccc3oc2=O)cs1)c1ccc(Br)cc1 [Compound 6e]
IC50 (AChE): 33.42 ± 0.18 µM | Selectivity for AChE (AChE): 1.47 | IC50 (BuChE; [1]): 49.12 ± 0.12 µM | Selectivity for BuChE (BuChE): 0.68

C/C(=N\Nc1nc(-c2cc3ccccc3oc2=O)cs1)c1cccc(Br)c1 [Compound 6d]
IC50 (AChE): 30.1 ± 1.73 µM | Selectivity for AChE (AChE): 0.50 | BuChE inhibition, in words (BuChE): moderate inhibitors | IC50 (BuChE; [1]): 15.2 ± 0.53 µM | Selectivity for BuChE (BuChE): 1.98

COc1ccc(/C(C)=N/Nc2nc(-c3cc4ccccc4oc3=O)cs2)cc1I [Compound 6l]
IC50 (AChE): 13.8 ± 1.58 µM | Selectivity for AChE (AChE): 2.32 | IC50 (BuChE; [1]): 32.1 ± 1.08 µM | Selectivity for BuChE (BuChE): 0.42

O=c1oc2ccccc2cc1-c1nn(CNc2ccc(Cl)cc2)c(=S)o1 [Compound 11f]
IC50 (AChE): 18.6 ± 0.32 µM | Selectivity for AChE (AChE): 0.65 | IC50 (BuChE; [1]): 12.1 ± 1.08 µM | Selectivity for BuChE (BuChE): 1.53

O=c1oc2ccccc2cc1-c1nn(CN(c2ccccc2)c2ccccc2)c(=S)o1 [Compound 11g]
AChE inhibition, in words (AChE): moderate inhibitors | IC50 (AChE): 9.57 ± 1.42 µM | Selectivity for AChE (AChE): 0.47 | IC50 (BuChE; [1]): 4.54 ± 0.54 µM | Selectivity for BuChE (BuChE): 2.10

Cc1ccc(NCn2nc(-c3cc4ccccc4oc3=O)oc2=S)cc1 [Compound 11c]
IC50 (AChE): 23.8 ± 0.94 µM | Selectivity for AChE (AChE): 0.33 | IC50 (BuChE; [1]): 8.01 ± 3.58 µM | Selectivity for BuChE (BuChE): 2.97

CCCCNCn1nc(-c2cc3ccccc3oc2=O)oc1=S [Compound 11b]
IC50 (AChE): 9.41 ± 0.55 µM | Selectivity for AChE (AChE): 0.081 | IC50 (BuChE; [1]): 0.77 ± 0.08 µM | Selectivity for BuChE (BuChE): 12.2

C/C(=N\Nc1nc(-c2cc3ccccc3oc2=O)cs1)c1ccccc1F [Compound 6f]
IC50 (AChE): 23.1 ± 0.32 µM | Selectivity for AChE (AChE): 1.39 | IC50 (BuChE; [1]): 32.1 ± 1.21 µM | Selectivity for BuChE (BuChE): 0.71

COc1ccc(/C(C)=N/Nc2nc(-c3cc4ccccc4oc3=O)cs2)c(O)c1 [Compound 6j]
IC50 (AChE): 9.05 ± 0.23 µM | Selectivity for AChE (AChE): 1.22 | IC50 (BuChE; [1]): 11 ± 3.37 µM | Selectivity for BuChE (BuChE): 0.81

COc1ccc(/C(C)=N/Nc2nc(-c3cc4ccccc4oc3=O)cs2)cc1F [Compound 6i]
IC50 (AChE): 2.34 ± 1.43 µM | Selectivity for AChE (AChE): 9.44 | IC50 (BuChE; [1]): 22.1 ± 1.08 µM | Selectivity for BuChE (BuChE): 0.105

CN(C)C(=O)Oc1cccc([N+](C)(C)C)c1 [Neostigmine, reference compound]
IC50 (AChE): 28.2 ± 2.01 µM | Selectivity for AChE (AChE): 0.57 | IC50 (BuChE): 16.1 ± 1.13 µM | Selectivity for BuChE (BuChE): 1.75

C/C(=N\Nc1nc(-c2cc3ccccc3oc2=O)cs1)c1ccc(F)cc1 [Compound 6g]
IC50 (AChE): 36.34 ± 0.18 µM | Selectivity for AChE (AChE): 0.77 | IC50 (BuChE; [1]): 28.01 ± 0.21 µM | Selectivity for BuChE (BuChE): 1.29

O=c1oc2ccccc2cc1-c1nn(CN2CCOCC2)c(=S)o1 [Compound 11h]
AChE inhibition, in words (AChE): moderate inhibitors | IC50 (AChE): 12.2 ± 1.67 µM | Selectivity for AChE (AChE): 1.09 | IC50 (BuChE; [1]): 13.5 ± 0.41 µM | Selectivity for BuChE (BuChE): 0.91

C/C(=N\Nc1nc(-c2cc3ccccc3oc2=O)cs1)c1ccc(Cl)cc1N [Compound 6m]
IC50 (AChE): 22.74 ± 0.16 µM | Selectivity for AChE (AChE): 1.63 | IC50 (BuChE; [1]): 37.2 ± 0.55 µM | Selectivity for BuChE (BuChE): 0.61

O=c1oc2ccccc2cc1-c1nn(CNc2cccc(Cl)c2)c(=S)o1 [Compound 11e]
IC50 (AChE): 12.4 ± 0.08 µM | Selectivity for AChE (AChE): 0.012 | IC50 (BuChE; [1]): 0.15 ± 0.09 µM | Selectivity for BuChE (BuChE): 82.6 | fold more potent against BuChE than neostigmine (BuChE; relative to neostigmine): about 107 fold

C/C(=N\Nc1nc(-c2cc3ccccc3oc2=O)cs1)c1ccccc1 [Compound 6a]
IC50 (AChE): 16.9 ± 0.32 µM | Selectivity for AChE (AChE): 1.93 | IC50 (BuChE; [1]): 32.7 ± 2.08 µM | Selectivity for BuChE (BuChE): 0.51

COc1cc(C(C)=NNc2nc(-c3cc4ccccc4oc3=O)cs2)ccc1O [Compound 6k]
IC50 (AChE): 5.86 ± 0.15 µM | Selectivity for AChE (AChE): 3.29 | IC50 (BuChE; [1]): 19.1 ± 1.32 µM | Selectivity for BuChE (BuChE): 0.303

O=c1oc2ccccc2cc1-c1csc(NN=C(c2ccccc2)c2ccccc2)n1 [Compound 6n]
IC50 (AChE): 11.2 ± 0.17 µM | Selectivity for AChE (AChE): 1.94 | IC50 (BuChE; [1]): 21.6 ± 3.09 µM | Selectivity for BuChE (BuChE): 0.51

C/C(=N\Nc1nc(-c2cc3ccccc3oc2=O)cs1)c1cc2ccccc2oc1=O [Compound 6o]
IC50 (AChE): 10.1 ± 1.12 µM | Selectivity for AChE (AChE): 2.28 | IC50 (BuChE; [1]): 23.2 ± 0.29 µM | Selectivity for BuChE (BuChE): 0.43

CC(=NNc1nc(-c2cc3ccccc3oc2=O)cs1)c1cccc(N)c1 [Compound 6b]
IC50 (AChE): 0.87 ± 0.09 µM | Selectivity for AChE (AChE): 35.8 | fold stronger AChE inhibition than the standard neostigmine (AChE): ~ 32 fold | IC50 (BuChE; [1]): 31.22 ± 0.17 µM | Selectivity for BuChE (BuChE): 0.027

COc1ccc(C(C)=NNc2nc(-c3cc4ccccc4oc3=O)cs2)cc1 [Compound 6h]
IC50 (AChE): 1.08 ± 0.84 µM | Selectivity for AChE (AChE): 17.8 | fold stronger AChE inhibition than the standard neostigmine (AChE): 26 fold | BuChE inhibition, in words (BuChE): moderate inhibitors | IC50 (BuChE; [1]): 19.32 ± 0.11 µM | Selectivity for BuChE (BuChE): 0.055

CNCn1nc(-c2cc3ccccc3oc2=O)oc1=S [Compound 11a]
IC50 (AChE): 6.07 ± 0.23 µM | Selectivity for AChE (AChE): 0.056 | IC50 (BuChE; [1]): 0.341 ± 0.06 µM | Selectivity for BuChE (BuChE): 17.8

O=c1oc2ccccc2cc1-c1nn(CNc2ccccc2Cl)c(=S)o1 [Compound 11d]
IC50 (AChE): 16.6 ± 2.72 µM | Selectivity for AChE (AChE): 0.20 | IC50 (BuChE; [1]): 3.48 ± 1.58 µM | Selectivity for BuChE (BuChE): 4.77

C/C(=N\Nc1nc(-c2cc3ccccc3oc2=O)cs1)c1ccccc1Br [Compound 6c]
IC50 (AChE): 21.2 ± 0.23 µM | Selectivity for AChE (AChE): 0.91 | IC50 (BuChE; [1]): 19.3 ± 1.42 µM | Selectivity for BuChE (BuChE): 1.09

From paper PMC5879128, “Combined in Vitro and in Silico Studies for the Anticholinesterase Activity and Pharmacokinetics of Coumarinyl Thiazoles and Oxadiazoles” (Frontiers in Chemistry, 2018)
